The text below walks through data of patent US20210315840A1, “SOLID ORAL DOSAGE FORMS OF KETAMINE DERIVATIVES” (priority 2017, published 2021).

“Also recorded” adds a separate entry of the source. Like-named read-outs stand apart in the source and are kept apart here.

For data set [1], the system named is mouse. The data set is described as follows: Progressive ratio test in the mouse.
The subject of data set [2] is Caco-2.
[3] abbreviates: 300 mg/kg IP daily for 4 days, listed as 2R,6R-HNK.
[4] abbreviates: 300 mg/kg, replication after 3-week wash-out, listed as 2R,6R-HNK.
Setting [5] is: dose matched to 300 mg/kg 2R,6R-HNK.

For `N[C@@]1(c2ccccc2Cl)CCC[C@@H](O)C1=O` [2R,6R-hydroxynorketamine L-pyroglutamate], in data set [1] (300 mg/kg IP), the “average responses per minute, higher compared with vehicle” value is 29%. In data set [1] (300 mg/kg IP daily for 4 days), the “number of target touches compared to ketamine and vehicle groups” value was “significant increase”. Moreover, the “breakpoint compared to vehicle and ketamine” value in data set [1] (300 mg/kg IP daily for 4 days, tested 20 minutes after injection) is “significant increase”. In data set [1] (setting [3]), the “% of correct touches” value is reported as “significant increase; also recorded: significantly increased” and the “ratio of target touches to blank touches” value is on record as “significant increase; also recorded: significantly increased”. Besides, the “rate of responding (running rate) compared to ketamine and vehicle groups” value in data set [1] (300 mg/kg IP, 60 minute test session) was “higher rate of responding”. For the same molecule, the “predicted peak responding (running rate coefficient)” value in data set [1] (300 mg/kg IP, p=0.12) is recorded as “trend toward a main effect of drug”. In addition, the “average responses per minute, higher compared with ketamine” value in data set [1] (300 mg/kg IP, ketamine 10 mg/kg) stood at 59%. For the same molecule, the “breakpoint compared to vehicle and ketamine” value in data set [1] (300 mg/kg, replication after 3-week wash-out) is reported as “significant increase”. Also, in data set [1] (setting [4]), the “% of correct touches” value is “significant increase; also recorded: increased”, the “number of target touches” value is “significant increase; also recorded: increased” and the “ratio of target touches to blank touches” value was “significant increase; also recorded: increased”. The cognitive measures entry in data set [1] (doses below 30 mg/kg) is recorded as “No increase”.
For `O=C1CC[C@@H](C(=O)[O-])N1.[Na+]` [NaPg, sodium L-pyroglutamate, reference compound], in data set [1] (setting [5]), the any measure examined entry was “did not significantly affect” and the “breakpoint compared to vehicle controls” value is “did not increase”.
For `CC(C)NCC(O)COc1cccc2ccccc12` (stereo not shown) [Propranolol, reference compound], in data set [2] (Direction = A2B), the “Papp Replicate 1” value is recorded as 26.0 10^−6 cms^−1 and the “Papp Replicate 2” value is 27.4 10^−6 cms^−1. Further, in data set [2] (Direction = B2A), the “Papp Replicate 1” value is 27.0 10^−6 cms^−1 and the “Papp Replicate 2” value is 26.2 10^−6 cms^−1.
